Measurements: patent US20030022158A1, “Peptides from the TT virus sequence and monospecific antibodies binding to the TT virus” (priority 1999, published 2003)

Assays:
[1] = system: human antibodies in human serum samples; assay: EIA reactivities of three human serum samples with deletion and alanine substitution analogues of SEQ ID NO: 1 (Table 6); type: binding; details: positive = more than 50% of the reactivity of the original peptide
Method: (§1) The EIAs used to identify which peptides interacted with human sera followed protocols known in the art. (See Zhang et al., J Gen Virol, 78:2735-2746 (1997), herein expressly incorporated by reference in its entirety). Briefly, microplates (Nunc, Denmark) were coated for 48 hours with synthetic peptides at a concentration of 10 μg/ml in 0.05M sodium carbonate buffer pH 9.6. After blocking for 2 hours at room temperature with phosphate buffered saline containing 1% bovine serum albumin, 2% goat serum and 0.05% Tween 20 (dilution buffer) the plates were incubated with human sera diluted 1:100 in dilution buffer. Bound human IgG was detected by incubation with anti-human IgG antibodies conjugated to alkaline phosphatase (Sigma Chemicals, St. Louis, Mo.). The plates were developed by the addition of […] (Sigma) and the optical densities were determined at 405 nm.
The reactivity to the TATTTTYAYPGTNRPPV (SEQ ID NO: 1) peptide was further characterized by mapping the reactivity of deletion and substitution peptide analogues.

[2] = system: human IgG antibodies in human serum samples; assay: EIA of human antibody reactivities to overlapping synthetic peptides of TTV ORF1 and ORF2 (Tables 2 and 3); type: binding; details: for optical density (OD) at 405 nm: serum diluted 1:100, OD over 0.500 considered positive; for optical density (OD) at 405 nm, EIA reactivity of human serum sample 1: serum sample 1, negative for TTV DNA by PCR; for optical density (OD) at 405 nm, EIA reactivity of human serum sample 1 / optical density (OD) at 405 nm, EIA reactivity of human serum sample 2 / optical density (OD) at 405 nm, EIA reactivity of human serum sample 3 / optical density (OD) at 405 nm, EIA reactivity of human serum sample 4 / optical density (OD) at 405 nm, EIA reactivity of human serum sample 5 / optical density (OD) at 405 nm, EIA reactivity of human serum sample 6 / optical density (OD) at 405 nm, EIA reactivity of human serum sample 7 / optical density (OD) at 405 nm, EIA reactivity of human serum sample 9 / optical density (OD) at 405 nm, EIA reactivity of human serum sample 11 / optical density (OD) at 405 nm, EIA reactivity of human serum sample 18 / optical density (OD) at 405 nm, EIA reactivity of human serum sample 36 / optical density (OD) at 405 nm, EIA reactivity of human serum sample 48 / optical density (OD) at 405 nm, EIA reactivity of human serum sample 98 / optical density (OD) at 405 nm, EIA reactivity of human serum sample 110 / optical density (OD) at 405 nm, EIA reactivity of human serum sample 155 / optical density (OD) at 405 nm, EIA reactivity of human serum sample 157: serum 1:100, peptide coated 10 μg/ml, OD over 0.500 positive; for optical density (OD) at 405 nm, EIA reactivity of human serum sample 2: serum sample 2, negative for TTV DNA by PCR; for optical density (OD) at 405 nm, EIA reactivity of human serum sample 3: serum sample 3, negative for TTV DNA by PCR; for optical density (OD) at 405 nm, EIA reactivity of human serum sample 4: serum sample 4, negative for TTV DNA by PCR; for optical density (OD) at 405 nm, EIA reactivity of human serum sample 5: serum sample 5, negative for TTV DNA by PCR; for optical density (OD) at 405 nm, EIA reactivity of human serum sample 6: serum sample 6, negative for TTV DNA by PCR; for optical density (OD) at 405 nm, EIA reactivity of human serum sample 7: serum sample 7, negative for TTV DNA by PCR; for optical density (OD) at 405 nm, EIA reactivity of human serum sample 9: serum sample 9, positive for TTV DNA by PCR; for optical density (OD) at 405 nm, EIA reactivity of human serum sample 11: serum sample 11, negative for TTV DNA by PCR; for optical density (OD) at 405 nm, EIA reactivity of human serum sample 18: serum sample 18, positive for TTV DNA by PCR; for optical density (OD) at 405 nm, EIA reactivity of human serum sample 36: serum sample 36, positive for TTV DNA by PCR; for optical density (OD) at 405 nm, EIA reactivity of human serum sample 48: serum sample 48, positive for TTV DNA by PCR; for optical density (OD) at 405 nm, EIA reactivity of human serum sample 98: serum sample 98, positive for TTV DNA by PCR; for optical density (OD) at 405 nm, EIA reactivity of human serum sample 110: serum sample 110, positive for TTV DNA by PCR; for optical density (OD) at 405 nm, EIA reactivity of human serum sample 155: serum sample 155, positive for TTV DNA by PCR; for optical density (OD) at 405 nm, EIA reactivity of human serum sample 157: serum sample 157, positive for TTV DNA by PCR; for human reactivity to peptide (reactive peptides within ORF1): tested human sera, EIA
Excerpt: Overlapping peptides (18 amino acids in length containing an 8 amino acid overlap) corresponding to regions of the ORFI and ORF2 of TTV (TABLE 1; Genebank accession no AB008394) were produced by a multiple peptide synthesizer (Syro, Syntex, Germany) using standard Fmoc chemistry (Sallberg et al., Immunology Letters, 30:59 68 (1991), herein expressly incorporated by reference in its entirety).
as §1

[3] = human serum sample 1, negative for TTV DNA by PCR
[4] = human serum sample 2, negative for TTV DNA by PCR
[5] = human serum sample 3, negative for TTV DNA by PCR
[6] = human serum sample 4, negative for TTV DNA by PCR
[7] = human serum sample 5, negative for TTV DNA by PCR
[8] = human serum sample 6, negative for TTV DNA by PCR
[9] = human serum sample 7, negative for TTV DNA by PCR
[10] = human serum sample 9, positive for TTV DNA by PCR
[11] = human serum sample 11, negative for TTV DNA by PCR
[12] = human serum sample 18, positive for TTV DNA by PCR
[13] = human serum sample 36, positive for TTV DNA by PCR
[14] = human serum sample 48, positive for TTV DNA by PCR
[15] = human serum sample 98, positive for TTV DNA by PCR
[16] = human serum sample 110, positive for TTV DNA by PCR
[17] = human serum sample 155, positive for TTV DNA by PCR
[18] = human serum sample 157, positive for TTV DNA by PCR

Substance	OD at 405 nm, reactivity of human serum sample P4 [1] [OD]	OD at 405 nm, reactivity of human serum sample P7 [1] [OD]	OD at 405 nm, reactivity of human serum sample P36 [1] [OD]	optical density (OD) at 405 nm [2, 3] [OD]	optical density (OD) at 405 nm [2, 4] [OD]	optical density (OD) at 405 nm [2, 5] [OD]	optical density (OD) at 405 nm [2, 6] [OD]	optical density (OD) at 405 nm [2, 7] [OD]	optical density (OD) at 405 nm [2, 8] [OD]	optical density (OD) at 405 nm [2, 9] [OD]	optical density (OD) at 405 nm [2, 10] [OD]	optical density (OD) at 405 nm [2, 11] [OD]	optical density (OD) at 405 nm [2, 12] [OD]	optical density (OD) at 405 nm [2, 13] [OD]	optical density (OD) at 405 nm [2, 14] [OD]	optical density (OD) at 405 nm [2, 15] [OD]	optical density (OD) at 405 nm [2, 16] [OD]	optical density (OD) at 405 nm [2, 17] [OD]	optical density (OD) at 405 nm [2, 18] [OD]	optical density (OD) at 405 nm, EIA reactivity of human serum sample 1 [2] [OD]	other results
peptide 1: overlapping synthetic peptide of TTV ORF1 (TATTTTYAYPGTNRPPV)	0.839	1.845	0.825	0.00	0.00	0.00	0.00	0.00	0.00	0.00	0.00	0.00	0.00	0.00	0.00	0.00	0.00	0.00	0.00	0.09	optical density (OD) at 405 nm, EIA reactivity of human serum sample 2 [2]: 0.10 OD; optical density (OD) at 405 nm, EIA reactivity of human serum sample 3 [2]: 0.13 OD; optical density (OD) at 405 nm, EIA reactivity of human serum sample 4 [2]: 0.11 OD; optical density (OD) at 405 nm, EIA reactivity of human serum sample 5 [2]: 0.10 OD; optical density (OD) at 405 nm, EIA reactivity of human serum sample 6 [2]: 0.16 OD; optical density (OD) at 405 nm, EIA reactivity of human serum sample 7 [2]: 0.09 OD; optical density (OD) at 405 nm, EIA reactivity of human serum sample 9 [2]: 0.08 OD; optical density (OD) at 405 nm, EIA reactivity of human serum sample 11 [2]: 0.12 OD; optical density (OD) at 405 nm, EIA reactivity of human serum sample 18 [2]: 0.08 OD; optical density (OD) at 405 nm, EIA reactivity of human serum sample 36 [2]: 0.09 OD; optical density (OD) at 405 nm, EIA reactivity of human serum sample 48 [2]: 0.08 OD; optical density (OD) at 405 nm, EIA reactivity of human serum sample 98 [2]: 0.08 OD; optical density (OD) at 405 nm, EIA reactivity of human serum sample 110 [2]: 0.08 OD; optical density (OD) at 405 nm, EIA reactivity of human serum sample 155 [2]: 0.14 OD; optical density (OD) at 405 nm, EIA reactivity of human serum sample 157 [2]: 0.14 OD
PDEKSQREILLNKIASY (Peptide Immunogen) [compound 29, overlapping synthetic peptide of TTV ORF1]	0.142	0.105	0.076	0.42	0.36	0.45	0.53	0.22	0.95	0.29	0.21	0.14	0.11	0.09	0.10	0.09	0.25	0.59	0.62	–	human reactivity to peptide (reactive peptides within ORF1) [2]: Reactive
YTDIKYNPFTDRGEGNM (Peptide Immunogen) [compound 44, overlapping synthetic peptide of TTV ORF1]	0.855	1.829	0.806	0.09	0.11	0.11	0.12	0.98	0.15	0.10	0.09	0.14	0.09	0.08	0.08	0.12	0.13	0.17	1.25	–	human reactivity to peptide (reactive peptides within ORF1) [2]: Reactive
2: overlapping synthetic peptide of TTV ORF1 (YAYPGTNRPPV) [compound 2]	0.647	1.546	0.677	0.08	0.08	0.07	0.11	0.07	0.09	0.08	0.07	0.14	0.06	0.08	0.10	0.05	0.08	0.07	0.08	0.10	optical density (OD) at 405 nm, EIA reactivity of human serum sample 2 [2]: 0.11 OD; optical density (OD) at 405 nm, EIA reactivity of human serum sample 3 [2]: 0.11 OD; optical density (OD) at 405 nm, EIA reactivity of human serum sample 4 [2]: 0.10 OD; optical density (OD) at 405 nm, EIA reactivity of human serum sample 5 [2]: 0.08 OD; optical density (OD) at 405 nm, EIA reactivity of human serum sample 6 [2]: 0.12 OD; optical density (OD) at 405 nm, EIA reactivity of human serum sample 7 [2]: 0.09 OD; optical density (OD) at 405 nm, EIA reactivity of human serum sample 9 [2]: 0.08 OD; optical density (OD) at 405 nm, EIA reactivity of human serum sample 11 [2]: 0.14 OD; optical density (OD) at 405 nm, EIA reactivity of human serum sample 18 [2]: 0.08 OD; optical density (OD) at 405 nm, EIA reactivity of human serum sample 36 [2]: 0.08 OD; optical density (OD) at 405 nm, EIA reactivity of human serum sample 48 [2]: 0.08 OD; optical density (OD) at 405 nm, EIA reactivity of human serum sample 98 [2]: 0.08 OD; optical density (OD) at 405 nm, EIA reactivity of human serum sample 110 [2]: 0.09 OD; optical density (OD) at 405 nm, EIA reactivity of human serum sample 155 [2]: 0.14 OD; optical density (OD) at 405 nm, EIA reactivity of human serum sample 157 [2]: 0.13 OD
